Our source for the IC50 values is patent publication US20210261539A1, “COMPOUND HAVING BET INHIBITORY ACTIVITY AND PREPARATION METHOD AND USE THEREFOR” (Shanghai Haihe Pharmaceutical Co., Ltd., priority 2018, published 2021).

This assay addresses T1, BRD4 BD1 (Homo sapiens, UniProt O60885).
T1 construct: Protein BRD4 BD1 used in the assay was purchased from Active Motif (cat. 31380); purchased Active Motif 31380
The assay is described as follows: HTRF in vitro enzyme activity assay, inhibition of BRD4 BD1 binding to acetylated H4 peptide. The conditions noted are these: IC50 values of the compounds against BRD4 BD1 binding; class symbols A/B/C. Here is the method:
Effect Examples: In Vitro Enzyme Activity Assay
Half inhibitory activity (IC50) of the compounds of the invention against the bromodomain protein BRD4 BD1 was determined in the present Examples.
The compounds of the invention were tested for inhibitory activity against BRD4 BD1 with Homogeneous Time-Resolved Fluorescence (HTRF).
2. Reagents, Consumable Materials and Instruments:
Protein BRD4 BD1 used in the assay was purchased from Active Motif (cat. 31380); streptavidin XL-665 (#610SAXLA) and EPIgeneous Binding Domain Kit A (#62BDAPEG) were both purchased from Cisbio Bioassays; [Lys(5,8,12,16)Ac] H4(1-21)-biotin (#64989), [Lys(5,8,12,16)Ac]H4(1-25) were available from Anaspec; OTX015 and ABBV-075 were purchased from Selleckchem Co. The 384-well ProxiPlate (#6008280) was purchased from Perkinelmer Co. The Laboratory microplate reader (Envision 2104) was available from PerkinElmer Co. The water used in the assay was Millipore-Q pure water.
3. Formulation of the Compound
10 mM DMSO stock solution of the test compound was diluted to 1 mM in DMSO, and then diluted 10-fold in Binding Domain dilution buffer (purchased from Cisbio Bioassays) for use (DMSO concentration in the final system was 0.1%), including 5 concentrations in 1:5 gradient.
4. Assay Protocol: 1 Batch, 2 Repeats
1) 5 μL of test compound was transferred to 45 μL Binding Domain dilution buffer.
2) 2 μL of 1× compound (4 μL Binding Domain dilution buffer: positive control; 6 μL enzyme buffer (purchased from Cisbio Bioassays): negative control) was transferred to a reaction plate.
3) 4 μL of 5×BRD 4(1) was added to the reaction plate (30 nM in the final system).
4) 4 μL of 5×[Lys(5,8,12,16)Ac] H4(1-21)-biotin was added to the reaction plate, and the plate was covered with a film and incubated at 37° C. for 30 min.
5) A detection mixture of SA-XL665 (2×) and anti-H3K9me0-Eu(K) (2×) was prepared in detection buffer (purchased from Cisbio Bioassays).
6) 10 μL of detection mixture (2×) was added to each well, incubated at RT for 3 h. The mp value was read by microplate reader Envision with the following parameters: […]

In general, IC50 refers to the concentration at which inhibition is half-maximal. Read a low IC50 as greater potency.

Compound `CC1C(=O)N(C)c2cnc(-n3c(=O)c4ccccc4n3-c3ccc(Cl)cc3)cc2N1C1CC1` (centres unmarked) [Example A29-P4, 7-(1-(4-chlorophenyl)-3-oxo-1H-indazol-2(3H)-yl)-1-cyclopropyl-2,4-dimethyl-1,2-dihydropyrido [3 4-b]pyrazin-3(4H)-one] showed an IC50 not above 10 nM. The compound `C[C@H]1Oc2cc(N3C(=O)c4cc(F)ccc4C3c3cccnc3)ncc2N(C)C1=O` (stereo partly drawn) [Example A117, (2R)-7-(5-fluoro-3-oxo-1-(pyridin-3-yl)isoindolin-2-yl)-2,4-dimethyl-2H-pyrido[4,3-b][1,4]oxazin-3(4H)-one] displayed a 50% inhibitory concentration (IC50) of 100 to 1000 nM. Regarding `C[C@@H]1C(=O)N(C)c2ccc(N3C(=O)c4c(C(=O)NC5CC5)cccc4C3c3ccc(F)cc3)nc2N1C` (stereo partly drawn) [Example A86-P3, N-cyclopropyl-1-(4-fluorophenyl)-3-oxo-2-((R)-1,3,4-trimethyl-2-oxo-1,2,3,4-tetrahydropyrido[2,3-b]pyrazin-6-yl)isoindoline-4-carboxamide], the half-inhibitory concentration (IC50) was not above 10 nM.

On to `CC1C(=O)N(C)c2ccc(N3C(=O)c4ccccc4C3c3ccc(Cl)cc3)nc2N1C1COC1` (centres unmarked) [Example A31-P3, 6-(1-(4-chlorophenyl)-3-oxoisoindolin-2-yl)-1,3-dimethyl-4-(oxacyclebutan-3-yl)-3,4-dihydropyrido [3,2-B]pyrazin-2(1H)-one], for which the IC50 is not above 10 nM. With `C[C@@H]1C(=O)N(C)c2ccc(N3C(=O)c4ccccc4C3c3cccnc3)nc2N1C` (stereo partly drawn) [Example A48-P4, (3R)-1,3,4-trimethyl-6-(1-oxo-3-(pyridin-3-yl)isoindolin-2-yl)-3,4-dihydropyrido [2,3-b]pyrazin-2-(1H)-one] the figure was not above 10 nM. With `CC1C(=O)N(C)c2ccc(N3C(=O)c4c(cccc4[S+](C)[O-])C3c3cccnc3)nc2N1C1CC1` (single isomer, unassigned) [Example A60-P3] the figure was not above 10 nM; with `CC1C(=O)N(C)c2ccc(N3C(=O)c4c(C(=O)O)cccc4C3c3ccc(F)cc3)nc2N1C1CC1` (single isomer, unassigned) [Example A81-P4], not above 10 nM; with `CC1C(=O)N(C)c2ccc(N3C(=O)c4ccccc4C3Cc3ccccc3)nc2N1C1CC1` (racemic) [Example A37, 4-cyclopropyl-6-(1-benzyl-3-oxoisoindolin-2-yl)-1,3-dimethyl-3,4-dihydropyrido [2,3-b]pyrazin-2(1H)-one], 100 to 1000 nM. With `C[C@H]1Oc2nc(N3C(=O)c4ccccc4C3c3ccc(Cl)nc3)ccc2N(C)C1=O` (single isomer, unassigned) [Example A122-P1] the figure was 10 to 100 nM; with `Cc1ccc(-n2c3ccccc3c(=O)n2-c2ccc3c(n2)N(C2CC2)C(C)C(=O)N3C)cn1` (single isomer, unassigned) [Example A50-P1, 6-(1-(6-methyl-pyridin-3-yl)-3-oxo-1,3-dihydro-2H-indazol-2-yl)-4-cyclopropyl-1-methyl-3-methyl-3,4-dihydropyridine [2,3-b]pyrazin-2(1H)-one], not above 10 nM; with `CCN1C(=O)[C@@H](C)Oc2nc(N3C(=O)c4ccccc4C3c3ccc(Cl)cc3)ccc21` (stereo partly drawn) [Example A109-P3, (R)-6-(1-(4-chlorophenyl)-3-oxoisoindolin-2-yl)-1-ethyl-3-methyl-1H-pyrido[2,3-B][1,4]oxazin-2-(3H)-one], 10 to 100 nM. `C[C@H]1Oc2nc(N3C(=O)c4cc(F)ccc4C3c3cccnc3)ncc2N(C)C1=O` (stereo partly drawn) [Example A116-P3, (7R)-2-(5-fluoro-3-oxo-1-(pyridin-3-yl)isoindolin-2-yl)-5,7-dimethyl-5H-pyrimido[4,5-B][1,4]oxazin-6(7H)-one] showed an IC50 of 100 to 1000 nM. With `Cc1ccc(-n2c3ccccc3c(=O)n2-c2ccc3c(n2)N(C2CC2)C(C)C(=O)N3C)cn1` (single isomer, unassigned) [Example A50-P4, 6-(1-(6-methyl-pyridin-3-yl)-3-oxo-1,3-dihydro-2H-indazol-2-yl)-4-cyclopropyl-1-methyl-3-methyl-3,4-dihydropyridine [2,3-b]pyrazin-2(1H)-one] the figure was not above 10 nM; with `C[C@H]1Oc2nc(N3C(=O)c4ccccc4C3c3cccnc3)c(F)cc2N(C)C1=O` (single isomer, unassigned) [Example A124-P1], 10 to 100 nM.

The compound `CCSc1cccc2c1C(=O)N(c1ccc3c(n1)N(C1CC1)C(C)C(=O)N3C)C2c1cccnc1` (single isomer, unassigned) [Example A66-P3] returned an IC50 not above 10 nM. With `C[C@H]1Oc2nc(N3C(=O)c4ccccc4C3c3ccc(F)nc3)c(F)cc2N(C)C1=O` (single isomer, unassigned) [Example A126-P1] the figure was 10 to 100 nM; with `CC1C(=O)N(C)c2ccc(N3C(=O)CCC3c3ccccc3)nc2N1C1CC1` (single isomer, unassigned) [Example A1-P2-2, 4-cyclopropyl-1,3-dimethyl-6-(2-oxo-5-phenyl-pyrrolidin-1-yl)-3,4-dihydropyrido[2,3-b]pyrazin-2(1H)-one], not above 10 nM. With `C[C@H]1Oc2cc(N3C(=O)c4ccccc4C3c3ccc(F)nc3)ncc2N(C)C1=O` (single isomer, unassigned) [Example A125-P1] the figure was 100 to 1000 nM; with `CC1C(=O)N(C)c2ccc(N3C(=O)c4ccccc4C3(O)c3ccc(F)cc3)nc2N1C1CC1` (centres unmarked) [Compound A25, 4-cyclopropyl-6-(1-(4-fluorophenyl)-1-hydroxy-3-oxoisoindolin-2-yl)-1,3-dimethyl-3,4-dihydropyrido[2,3-b]pyrazin-2(1H)-one], 10 to 100 nM; with `C[C@H]1Nc2nc(N3C(=O)CCC3c3ccccc3)ccc2N(C)C1=O` (single isomer, unassigned) [Example A20-P1], 10 to 100 nM. With `CC1C(=O)N(C)c2ccc(N3C(=O)c4c(cccc4[S+](C)[O-])C3c3cccnc3)nc2N1C1CC1` (single isomer, unassigned) [Example A60-P1] the figure was not above 10 nM. `Cc1ccc(C2c3ccccc3C(=O)N2c2cc3c(cn2)N(C)C(=O)[C@@H](C)O3)cn1` (single isomer, unassigned) [Example A113-P1]: the IC50 is 100 to 1000 nM. With `CC1C(=O)N(C)c2ccc(N3C(=O)c4c(C(=O)NC5CC5)cccc4C3c3ccc(F)cc3)nc2N1CC(F)(F)F` (centres unmarked) [Example A85-P4, N-cyclopropyl-2-(1,3-dimethyl-2-oxo-4-(2,2,2-trifluoroethyl)-1,2,3,4-tetrahydropyrido[2,3-b]pyrazin-6-fluorophenyl)-3-oxoisoindoline-4-carboxamide] the figure was not above 10 nM; with `[2H]C([2H])([2H])N1C(=O)C(C)N(C2CC2)c2nc(N3C(=O)c4ccccc4C3c3ccc(F)cc3)ccc21` (centres unmarked) [Example A51-P3, 4-cyclopropyl-6-(1-(4-fluorophenyl)-3-oxoisoindolin-2-yl)-3-methyl-1-(trideuteromethyl)-3,4-dihydropyrido [2,3-B]pyrazin2(1 H)-one], not above 10 nM; with `CC1C(=O)N(C)c2cnc(N3C(=O)c4ccccc4C3c3cccnc3)nc2N1C1CC1` (single isomer, unassigned) [Example A98-P3, 8-cyclopropyl-5,7-dimethyl-2-(1-oxo-3-(pyridin-3-yl)isoindolin-2-yl)-7,8-dihydropteridin-6(5H)-one], not above 10 nM.

Consider `CSc1cccc2c1C(=O)N(c1ccc3c(n1)N(C)[C@H](C)C(=O)N3C)C2c1cccnc1` (mixture of isomers) [Example A61, (3R)-1,3,4-trimethyl-6-(4-(methylthio)-3-oxo-1-(pyridin-3-yl)isoindolin-2-yl)-3,4-dihydropyrido[2,3-b]pyrazin-2(1H)-one], for which the 50% inhibitory concentration (IC50) is not above 10 nM. With `C[C@@H]1C(=O)N(C)c2ccc(N3C(=O)c4c(cccc4[S+](C)[O-])C3c3cccnc3)nc2N1C` (single isomer, unassigned) [Example A63-P4] the figure was not above 10 nM.

`CC1C(=O)N(C)c2ccc(N3C(=O)CCC3c3ccc(F)cc3F)nc2N1C1CC1` (single isomer, unassigned) [Example A7-P3, 4-cyclopropyl-6-(2-(2,4-difluorophenyl)-5-oxopyrrolidin-1-yl)-1,3-dimethyl-3,4-dihydropyrido[2,3-b]pyrazin-2(1H)-one] displayed an IC50 not above 10 nM. With `CC1Oc2nc(N3C(=O)CCC3c3ccc(F)cc3)ccc2N(C)C1=O` (single isomer, unassigned) [Example A21-P1, 6-(2-(4-fluorophenyl)-5-oxopyrrolidin-1-yl)-1,3-dimethyl-1H-pyrido[2,3-B][1,4]oxazin-2(3H)-one] the figure was not above 10 nM.
